Molecular target: PspF1-275 (Escherichia coli, UniProt P37344)
Details: 10 μM protein, pH 8.0, on ice; labelled compound; comparative control

Sequence of PspF1-275 (P37344 1-275): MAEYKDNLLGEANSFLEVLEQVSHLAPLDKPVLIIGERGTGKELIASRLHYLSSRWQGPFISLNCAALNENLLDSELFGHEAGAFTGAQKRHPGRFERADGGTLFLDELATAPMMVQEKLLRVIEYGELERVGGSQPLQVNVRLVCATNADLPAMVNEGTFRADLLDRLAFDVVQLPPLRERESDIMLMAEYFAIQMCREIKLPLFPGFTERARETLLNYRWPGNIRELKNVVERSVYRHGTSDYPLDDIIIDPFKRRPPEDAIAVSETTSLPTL

Question: Which “ultraviolet crosslinking of [α-32P]ATP, SDS-PAGE, phosphorimaging” value does the source give for Nc1ncnc2c1ncn2[C@@H]1O[C@H](COP(=O)(O)OP(=O)(O)OP(=O)(O)O)[C@@H](O)[C@H]1O [ATP] here?
Answer: at a level comparable to that of the structurally and functionally characterized EBP PspF

— publication PMC3105312 (Nature Communications, 2011)
